From US20090191160A1, “Methods of producing pluripotent stem-like cells” (University of Dayton, priority 2007, published 2009) come the findings set out here.

What all share (type): cell-based, mouse
In one assay the test system is skin fibroblast cells. The assay can be described thus: Conversion (dedifferentiation) of skin fibroblast cells into stem cell-like cells, phase contrast morphology. The settings on record: for reprogramming / dedifferentiation of skin fibroblast cells into stem cell-like cells: basic medium with SR or lipid-rich BSA versus basic medium only; for conversion of skin fibroblast cells into stem cell-like cells: Thapsigargin 1 μg/ml added to SR-containing medium. On the procedure:
(§1) Mouse embryonic skin fibroblast cells (MEFs) derived form 13.5 day mouse embryos and adult mouse primary dermal fibroblasts derived from adult mouse skin were cultured in DMEM Dulbecco's modified Eagle's medium (DMEM) with 10% Fetal Bovine Serum (FBS) at 37° C., 10% CO2. After the cells were grown to confluence, the cells were trypsinized, then suspended in SR-containing medium or basic medium without serum. About 10^5 mouse skin fibroblast cells were transferred to 3 ml SR-containing medium in a 6 well plate. SR-containing medium contained basic medium that included DMEM/F12 (Invitrogen 11330-032), 1× non-Essential Amino Acids (Invitrogen 11140-050), 1× L-Glutamine (Invitrogen 25030-018), […] β-mercaptoethanol and 20% Knockout Serum Replacer (Invitrogen 10828-028). 4 ng/mL bFGF (R&D System Cat# 233-FB) and Leukemia inhibitory factor Lif (ESGRO®, Chemicon ESG1107) were added to the SR-containing medium to prevent stem-like cells from differentiating.
Conversion of fibroblast cells to induced pluripotent stem-like cells can be achieved by culturing a mouse embryonic skin fibroblast (MEF), mouse adult skin fibroblast (MAF) or human skin fibroblast cell in DMEM media having 10% fetal bovine serum (FBS) until the cells are confluent. Serum-replacement (SR)-containing media and 0.25% trypsin/EDTA are then warmed (e.g., at 37° C. in a water bath). Media is aspirated from the fibroblast cell culture plate, cells are washed with 1×PBS, and trypsinized via addition of 2 mls of trypsin/EDTA for one minute, followed by removal of all the trypsin solution. 2 mls of the SR human ES medium or DMEM/F12 medium is then added to the cells (without FBS), and cells are resuspended in the medium using a 5 ml pipet, pipeting up and down until no large clumps remain. About 10^5 cells/well are then added to a six well plate, with each well containing 3 mls of SR human ES medium. The cells are then mixed in this media. Cells are then placed in a warm incubator (e.g., 37° C. at 5% or 10% CO2). The cells are passaged every 3 days for a total of five or more passages. Ingredients of SR human stem cell culture medium are: 400 ml DMEM/F12 (Invitrogen 11330-032), 5 ml non-Essential Amino Acids (Invitrogen 11140-050), 2.5 ml L-Glutamine (Invitrogen 25030-018), […] β-mercaptoethanol (Sigma 7522, add 3.5 ul) and 100 ml Knockout Serum Replacer (Invitrogen 10828-028). Optionally, 4 ng/mL bFGF (R&D System Cat# 233-FB) is present. To make FGF stock, 1 ml of DMEM/F12 was added to dissolve 1 vial of 10 ug of FGF, with this solution aliquotted into five vials, then stored at −20° C. bFGF needed to be added freshly to the medium every time the method was performed. Lif was also needed for mouse cell cultures. Formulation of the SR component of serum-free medium also contained AgNO3 and other trace elements. For AgNO3-containing media, 1000× AgNO3 was added to the medium to a final concentration of 0.0001 mg/L.
To investigate the possibility that serum replacement (SR)-containing medium can promote the reprogramming and dedifferentiation of skin fibroblast cells into pluripotent stem-like cells, mouse skin fibroblast cells were cultured in fibroblast growth medium, and were then transferred by trypsinization to plates holding SR-containing medium. […] Twenty-four hours post-transfer, a majority of cells became small, round, bright-edged granulated cells (FIG. 1a). […]

For assay [1], the system named is fibroblast growth factor receptor 3 (FGFR3). The assay can be described thus: Western blotting for FGF Receptor-3 protein in fibroblast cells. The settings on record: Western blot; for FGFR3 expression: Thapsigargin 1 ug/ml, 24 hour timepoint. From the text: […] […] All Images were acquired in the inverted microscope (Nikon TS100) at 10× magnification using the MetaMorph Imaging Software, and the scale bar is 100 μm.
(§2) (Up-regulation of FGFR3 had been previously shown to play an important role in the reprogramming of primordial germ cells into stem-like cells (Skottman et al. Stem Cell 24:151-167).)
In view of the observed involvement of the FGF signaling pathway, it was then examined whether Ca^2+ might be an important secondary messenger responsible for regulating the reprogramming of fibroblast cells induced by SR containing medium activation of the FGF signaling pathway. Thapsigargin, a tight-binding inhibitor for sarco/endoplasmic reticulum Ca^2+ ATPase, was added to the SR-containing medium at a concentration of 1 μg/ml (Durcova-Hills et al. Stem Cell 24:1441).

Another assay has as its system Ca^2+ influx. The assay can be described thus: Ca2+ signalling in fibroblast cells after transfer into SR-containing medium. The settings on record: after transfer of fibroblast cells.
Description: as §2

For the next assay, the system named is Oct4 promoter. Description: Methylation status of the Oct4 promoter in fibroblast cells. The settings on record: before and after contact with SR medium.
A further assay deals with embryonic bodies. Description: In vitro differentiation of embryoid bodies from SR-iPS cells. The settings on record: 2 μM trans-retinoic acid, 10 days, gelatin coated plates. On the procedure: One of the most important characteristics of stem-like cells is pluripotency. To investigate the SR-iPS stem cells have the multilineage differention potential as embryonic stem cells in vitro, different passage of iPS cells were used to form embryo bodis (EBs) one week's culture without passing in SR medium without Lif. The EBs continues to differentiate on gelatin coated plates and induced by 2 μM trans-retinoic acid for an additional 10 days. Expression of endoderm-, mesoderm-, and ectoderm-specific markers was examined by using antibodies raised against α-fetoprotein, smooth muscle actin, and β-tubulin III, respectively (21). For more specific cell lineage such as cardiomyocyte and smooth muscle cells differentiation, EBs were transferred to collagen-coated plate which contained α-MEM (cardiac differentiation medium) supplemented with 10 ng/ml platelet-derived growth factor-BB (PDGF-BB). Vascular endothelial growth medium supplemented with 50 ng/ml vascular endothelial growth factor (VEGF) was used for the smooth muscle growth differentiation. Two weeks after culturing the EBs in these medium, the cell morphology were examined by Immunofluorescent Staining with Troponin C and smooth muscle actin antibodies.

In a further assay the test system is ES-like cells. Description: Maintenance of ES-like cells in SR-containing medium with growth factors. The settings on record: bFGF 4 ng/ml and Lif added together to SR-containing medium. The protocol:
as §1
To investigate the possibility that serum replacement (SR)-containing medium can promote the reprogramming and dedifferentiation of skin fibroblast cells into pluripotent stem-like cells, mouse skin fibroblast cells were cultured in fibroblast growth medium, and were then transferred by trypsinization to plates holding SR-containing medium. […]

Consider `CCCCC/C=C\C/C=C\C/C=C\C/C=C\CCCC(=O)O` [acarchodonic acid], for which the “reprogramming / dedifferentiation of skin fibroblast cells into stem cell-like cells” value in the assay with skin fibroblast cells is on record as “required to create stem-like cells”.

In the case of “lipid-rich BSA: AlbuMAX I is the high-lipid BSA (Invitrogen)”, the “FGFR3 expression after transfer into medium” value in assay [1] (2, 4, 8, 12 hours after transfer) is recorded as “induced”. Also, in the assay on Ca^2+ influx, the “Ca^2+ influx / signalling” value was “induced”. Moreover, the “reprogramming / dedifferentiation of skin fibroblast cells into stem cell-like cells” value in the assay with skin fibroblast cells is reported as “promoted the dedifferentiation of skin fibroblast cells into stem cell-like cells”; with skin fibroblast cells (listed as high-lipid BSA), “required to create stem-like cells”. Further, the “methylation status of the Oct4 promoter” value in the assay with Oct4 promoter was “induced”.

With `C/C=C(/C)C(=O)O[C@H]1C(C)=C2[C@H]([C@@H]1OC(=O)CCCCCCC)[C@@](C)(OC(C)=O)C[C@H](OC(=O)CCC)[C@@]1(O)[C@H]2OC(=O)[C@@]1(C)O` [Thapsigargin, reference compound], the FGFR3 expression result in assay [1] is reported as “down-regulated FGF receptor 3 (FGFR3) expression”; in assay [1] (listed as thapsigargin), “prevented”. Further, the “conversion of skin fibroblast cells into stem cell-like cells” value was “prevented conversion of the fibroblast cells into stem-like cells” with skin fibroblast cells and “prevented” in the assay on skin fibroblast cells (listed as thapsigargin).

On to `CC1=C(/C=C/C(C)=C/C=C/C(C)=C/C(=O)O)C(C)(C)CCC1` [retinonic acid, trans-retinoic acid], for which the “differentiation into three germ layers (AFP, SM-Actin, β-tubulin III staining)” value in the assay with embryonic bodies was “differentiation of the embryonic bodies into three germ layers”.

Turning to “bFGF: basic fibroblast growth factor (R&D System Cat# 233-FB)”, in the assay on ES-like cells, the “division and differentiation of ES-like cells” value is “promote division of the ES-like cells, while preventing differentiation of these cells”.
